ChEMBL document CHEMBL3885861, “Open TG-GATES”

Organism: Rattus norvegicus
Experiment: Open TG-GATES - Regimen: Daily Repeat
Type: toxicity, organism-based, Sprague-Dawley
Set-up: regimen Daily Repeat, gender Male, age 6 weeks
Conditions: in vivo, po, route gavage; for APTT / Bas / Eos / Fbg / Hb / Ht / Lym / MCH / MCHC / MCV / Mono / Neu / PT / Plat / RBC / Ret / WBC: tissue Blood; for KIDNEY_L / KIDNEY_R / KIDNEY_TOTAL: tissue Kidney; for LIVER: tissue Liver; for ALP / ALT / BUN / CRE / Ca / DBIL / GLC / K / LDH / Na / PL / RALB / TBIL / TC / TG / TP / gamma-GTP / AST: tissue Plasma
[1] = 60 mg/kg, 72 h, dose level Middle, time 3 day
[2] = 60 mg/kg, […], dose level Middle, time 7 day
[3] = 60 mg/kg, […], dose level Middle, time 14 day
[4] = 60 mg/kg, […], dose level Middle, time 28 day

## CCCCc1oc2ccccc2c1C(=O)c1cc(I)c(OCCN(CC)CC)c(I)c1 [AMIODARONE]
[1]
  TERMINAL_BW: 226.1 g
  APTT: 18.2 s
  Bas: 0%
  Eos: 1.2%
  Fbg: 225.8 mg/dL
  Hb: 13.5 g/dL
  Ht: 39.6%
  Lym: 79.2%
  MCH: 21.1 pg
  MCHC: 34.1%
  MCV: 62.1 fL
  Mono: 2.6%
  Neu: 15.8%
  PT: 12.8 s
  Plat: 127.1 x10_4/uL
  RBC: 637.8 x10_4/ul
  Ret: 5.5%
  WBC: 99.3 x10_2/uL
  KIDNEY_L: 1 g
  KIDNEY_R: 1 g
  KIDNEY_TOTAL: 2.1 g
  LIVER: 11 g
  ALP: 1120.2 IU/L
  ALT: 37.8 IU/L
  BUN: 16 mg/dL
  CRE: 0.3 mg/dL
  Ca: 10.7 mg/dL
  DBIL: 0.096 mg/dL
  GLC: 196.6 mg/dL
  K: 3.8 meq/L
  LDH: 194.6 IU/L
  Na: 140.8 meq/L
  PL: 147 mg/dL
  RALB: 3.4 g/dL
  TBIL: 0.1 mg/dL
  TC: 73.8 mg/dL
  TG: 101.8 mg/dL
  TP: 5.5 g/dL
  gamma-GTP: 1 IU/L
[2]
  TERMINAL_BW: 259.8 g
  APTT: 17.9 s
  Bas: 0%
  Eos: 1%
  Fbg: 216.8 mg/dL
  Hb: 13 g/dL
  Lym: 76.2%
  MCH: 20.9 pg
  MCHC: 34.1%
  Mono: 3.2%
  Neu: 18.6%
  PT: 12.3 s
  Plat: 132.6 x10_4/uL
  RBC: 622.6 x10_4/ul
  Ret: 5.4%
  WBC: 103.2 x10_2/uL
  KIDNEY_L: 1.2 g
  KIDNEY_R: 1.1 g
  KIDNEY_TOTAL: 2.3 g
  ALP: 981 IU/L
  ALT: 34.8 IU/L
  AST: 60 IU/L
  BUN: 17.4 mg/dL
  CRE: 0.3 mg/dL
  Ca: 10.5 mg/dL
  DBIL: 0.1 mg/dL
  GLC: 208 mg/dL
  K: 4 meq/L
  LDH: 174.8 IU/L
  Na: 140.2 meq/L
  PL: 166.8 mg/dL
  RALB: 3.3 g/dL
  TBIL: 0.2 mg/dL
  TC: 90.8 mg/dL
  TG: 98.6 mg/dL
  TP: 5.5 g/dL
  gamma-GTP: 0.8 IU/L
[3]
  TERMINAL_BW: 302.6 g
  APTT: 20.8 s
  Bas: 0%
  Eos: 0.4%
  Fbg: 214.4 mg/dL
  Hb: 14.4 g/dL
  Ht: 41.1%
  Lym: 79%
  MCH: 20.9 pg
  MCHC: 35%
  MCV: 59.7 fL
  Mono: 2.2%
  Neu: 17.4%
  Plat: 115.4 x10_4/uL
  RBC: 688.2 x10_4/ul
  Ret: 4.3%
  WBC: 115.1 x10_2/uL
  KIDNEY_L: 1.2 g
  KIDNEY_R: 1.2 g
  KIDNEY_TOTAL: 2.3 g
  LIVER: 13.8 g
  ALP: 996.2 IU/L
  ALT: 41.4 IU/L
  AST: 64.6 IU/L
  BUN: 16.6 mg/dL
  CRE: 0.4 mg/dL
  Ca: 10.6 mg/dL
  DBIL: 0.086 mg/dL
  GLC: 224.6 mg/dL
  K: 3.5 meq/L
  LDH: 174.6 IU/L
  Na: 140.4 meq/L
  PL: 171.6 mg/dL
  RALB: 3.4 g/dL
  TBIL: 0.1 mg/dL
  TC: 90.4 mg/dL
  TG: 102 mg/dL
  TP: 5.9 g/dL
  gamma-GTP: 1.8 IU/L
[4]
  TERMINAL_BW: 385.9 g
  APTT: 20.6 s
  Bas: 0%
  Eos: 1%
  Fbg: 218.6 mg/dL
  Ht: 42.1%
  Lym: 78.2%
  MCH: 19.7 pg
  MCHC: 35%
  MCV: 56.3 fL
  Mono: 2.6%
  Neu: 17%
  Plat: 111.2 x10_4/uL
  RBC: 748.8 x10_4/ul
  Ret: 2.8%
  WBC: 115.2 x10_2/uL
  KIDNEY_L: 1.3 g
  KIDNEY_R: 1.3 g
  KIDNEY_TOTAL: 2.7 g
  LIVER: 16.9 g
  ALP: 803.2 IU/L
  ALT: 34.4 IU/L
  AST: 56.4 IU/L
  BUN: 18 mg/dL
  CRE: 0.5 mg/dL
  Ca: 10.4 mg/dL
  DBIL: 0.098 mg/dL
  GLC: 192.6 mg/dL
  K: 3.7 meq/L
  LDH: 152.6 IU/L
  Na: 141 meq/L
  PL: 167.2 mg/dL
  RALB: 3.3 g/dL
  TBIL: 0.2 mg/dL
  TC: 86.6 mg/dL
  TG: 120 mg/dL
  TP: 6 g/dL
  gamma-GTP: 1.6 IU/L
200 mg/kg, 72 h, dose level High, time 3 day
  TERMINAL_BW: 204.2 g
